Results taken from ChEMBL document CHEMBL3046833, “Six new triterpenoid saponins from the leaves of Ilex oblonga and their inhibitory activities against TMV replication” (Chem Pharm Bull (Tokyo), 2007).
Converted amounts (≈) assume the structure as drawn.

Columns and labels:
Tobacco mosaic virus [1] = test: Antiviral activity against Tobacco mosaic virus (TMV) assessed as inhibition of viral replication at 0.2 mg/ml after 48 hr by leaf disk method relative to control; format: functional
Tobacco mosaic virus [2] = test: Antiviral activity against Tobacco mosaic virus (TMV) assessed as inhibition of viral replication at 0.05 mg/ml after 48 hr by leaf disk method relative to control; format: functional
Tobacco mosaic virus [3] = test: Antiviral activity against Tobacco mosaic virus (TMV) assessed as inhibition of viral replication at 0.4 mg/ml after 48 hr by leaf disk method relative to control; format: functional
Tobacco mosaic virus [4] = test: Antiviral activity against Tobacco mosaic virus (TMV) assessed as inhibition of viral replication at 0.1 mg/ml after 48 hr by leaf disk method relative to control; format: functional
Tobacco mosaic virus [5] = test: Antiviral activity against Tobacco mosaic virus (TMV) assessed as inhibition of viral replication at 0.025 mg/ml after 48 hr by leaf disk method relative to control; format: functional
Tobacco mosaic virus [6] = test: Antiviral activity against Tobacco mosaic virus (TMV) assessed as inhibition of viral replication after 48 hr by leaf disk method; format: functional, organism-based

SMILES | inhibition at 200 µg/mL (Tobacco mosaic virus [1]) [%] | further results
CC1=C(C)[C@H]2C3=CC[C@@H]4[C@@]5(C)CC[C@H](O)[C@@](C)(CO)[C@@H]5CC[C@@]4(C)[C@]3(C)CC[C@@]2(C(=O)O[C@@H]2O[C@H](CO)[C@@H](O)[C@H](O)[C@H]2O)CC1 | 41.1 | 
CC1=C2C3=CC[C@@H]4[C@@]5(C)CC[C@H](O)[C@@](C)(CO)[C@@H]5CC[C@@]4(C)[C@]3(C)CC[C@@]2(C(=O)O[C@@H]2O[C@H](CO)[C@@H](O)[C@H](O)[C@H]2O)CC[C@H]1C | 47.3 | 
CC1=C2C3=CC[C@@H]4[C@@]5(C)CC[C@H](O[C@@H]6OC[C@@H](O)[C@H](O)[C@H]6O)C(C)(C)[C@@H]5CC[C@@]4(C)[C@]3(C)CC[C@@]2(C(=O)O[C@@H]2O[C@H](CO)[C@@H](O)[C@H](O)[C@H]2O)CC[C@H]1C | 33 | 
C=C1C2C3=CC[C@@H]4[C@@]5(C)CC[C@H](O)[C@@](C)(CO)[C@@H]5CC[C@@]4(C)[C@]3(C)CC[C@@]2(C(=O)O[C@@H]2O[C@H](CO)[C@@H](O)[C@H](O)[C@H]2O)CC[C@H]1C (stereo not given in full) | 29.6 | 
CC1=C2C3=CC[C@@H]4[C@@]5(C)CC[C@H](O[C@@H]6OC[C@@H](O)[C@H](O)[C@H]6O)[C@@](C)(CO)[C@@H]5CC[C@@]4(C)[C@]3(C)CC[C@@]2(C(=O)O[C@@H]2O[C@H](CO)[C@@H](O)[C@H](O)[C@H]2O)CC[C@H]1C [OBLONGANOSIDE C] | 38.6 | 
C=C1C2C3=CC[C@@H]4[C@@]5(C)CC[C@H](O[C@@H]6OC[C@@H](O)[C@H](O)[C@H]6O)C(C)(C)[C@@H]5CC[C@@]4(C)[C@]3(C)CC[C@@]2(C(=O)O[C@@H]2O[C@H](CO)[C@@H](O)[C@H](O)[C@H]2O)CC[C@H]1C (stereo not given in full) [OBLONGANOSIDE D] | 37.7 | 
CC1=C(C)[C@H]2C3=CC[C@@H]4[C@@]5(C)CC[C@@H]6O[C@H](CO)OC[C@@]6(C)[C@@H]5CC[C@@]4(C)[C@]3(C)CC[C@@]2(C(=O)O[C@@H]2O[C@H](CO)[C@@H](O)[C@H](O)[C@H]2O)CC1 [Oblonganoside A] | 80.3 | inhibition at 50 µg/mL (Tobacco mosaic virus [2]): 30.1%; Imax (Tobacco mosaic virus [3]): 87.3%; inhibition at 100 µg/mL (Tobacco mosaic virus [4]): 61.9%; inhibition at 25 µg/mL (Tobacco mosaic virus [5]): 10.1%; EC50 (Tobacco mosaic virus [6]): 74 µg/mL (≈ 110 µM)
CC1=C(C)[C@H]2C3=CC[C@@H]4[C@@]5(C)CC[C@H](O[C@@H]6OC[C@@H](O)[C@H](O)[C@H]6O)C(C)(C)[C@@H]5CC[C@@]4(C)[C@]3(C)CC[C@@]2(C(=O)O[C@@H]2O[C@H](CO)[C@@H](O)[C@H](O)[C@H]2O)CC1 [Oblonganoside B] | 56.4 | 
C=C1CC[C@]2(C(=O)O[C@@H]3O[C@H](CO)[C@@H](O)[C@H](O)[C@H]3O)CC[C@]3(C)C(=CC[C@@H]4[C@@]5(C)CC[C@H](O)[C@@](C)(CO)[C@@H]5CC[C@]43C)C2[C@]1(C)O (stereo not given in full) [Oblonganoside E] | 21.5 | 
C=C1CC[C@]2(C(=O)O[C@@H]3O[C@H](CO)[C@@H](O)[C@H](O)[C@H]3O)CC[C@]3(C)C(=CC[C@@H]4[C@@]5(C)CC[C@H](O[C@@H]6OC[C@@H](O)[C@H](O)[C@H]6O)C(C)(C)[C@@H]5CC[C@]43C)C2[C@]1(C)O (stereo not given in full) [Oblonganoside F] | 39.7 | 
